For assay [1], the system named is white rats with experimental diabetes (streptozotocin). The assay can be described thus: Blood glucose in rats with streptozotocin-induced experimental diabetes. As to conditions: diabetic rat, p.e. (subcutaneously), ± 8%. Format: in vivo. The method, then:
Experimental diabetes is obtained (induced) in white rats of […], weighing 180 g., by way of intraperitoneally administered streptozotocin in the amount of 70 mg. for 1 kg. of weight. Synthesized polymers began to be introduced after the glucose level has exceeded 400 mg. %.
The procedure is conducted according to Example 12 with an equal amount of insulin administered subcutaneously in the form of solution.

In assay [2] the test system is rabbits. The assay can be described thus: Glucose concentration in blood of rabbits after oral administration of insulin hydrogels. Format: in vivo. To be noted: rabbit, orally, ± 8%. The method, then:
0.1 g. of a pre-dried crosslinked polyacrylamide, modified with ovomucoid, is placed in 1 ml. of an aqueous solution of insulin (insulin activity is 25 U/mg.) with a concentration of 1.0 mg./ml. per hour at room temperature. During this time limit the polymer swells completely and is ready to use. The synthesized hydrogel in an amount corresponding to 5 units of insulin per kg. of animal weight is administered to rabbits orally, using a catheter. Blood samples are collected after 30, 60, 90 and 120 minutes.
The procedure is conducted according to Example 1 using various crosslinked modified polymers, various concentrations of the insulin solution, various quantities of the cross-linked modified polymers and various amounts of ovomucoid.
The procedure is conducted according to Example 1 but using a nonmodified polyacrylamide hydrogel.
Rabbits are treated orally with an insulin solution in an amount of 7 U/kg. of animal weight, a mixture of ovomucoid (2.5 mg./kg. weight) and insulin (8 U/kg) or a modified hydrogel (200 mg./kg. weight).

In assay [3] the test system is rabbits. As to conditions: subcutaneous injection, 0.23 units of insulin, cited from earlier work.

“14k: Control: porcine insulin solution administered subcutaneously to rats [Example 14k]”: the “Glucose Conc. in Blood” value in assay [1] (0 min) was 400 Mg./100 ml; in assay [1] (30 min after administration), 160 Mg./100 ml; in assay [1] (60 min after administration), 145 Mg./100 ml; in assay [1] (90 min after administration), 150 Mg./100 ml.

Regarding “15k: Control: porcine insulin solution given orally to rabbits, 7 U/kg [Example 15k]”, the “Glucose Conc. in Blood” value in the assay with rabbits [2] (0 min (start), 5 U insulin/kg in Ex. 1 (Ex. 15: 7 U/kg; Ex. 16: 8 U/kg + ovomucoid 2.5 mg/kg; Ex. 17: 200 mg/kg hydrogel)) stood at 152 Mg./100 ml; with rabbits [2] (30 min after administration), 151 Mg./100 ml; in the assay on rabbits [2] (60 min after administration) it was 150 Mg./100 ml; in the assay on rabbits [2] (90 min after administration), 160 Mg./100 ml.

In the case of insulin, in the assay with rabbits [3] (150 min. after the injection), the “glucose concentration in blood” value is 120 mg./100 ml and the “reduction of glucose concentration in blood” value was 74%. For the same substance, the “glucose concentration in blood, initial” value in the assay with rabbits [3] (before) is 330 mg./100 ml.

Values taken from patent publication US5698515A, “Insulin-containing polymer composition for oral administration” (Institut Neftekhimicheskogo Sinteza Imeni A.V.Topchieva …, priority 1994, dated 1997).
